Test results published in ChEMBL document CHEMBL4392848, “Proline-based hydroxamates targeting the zinc-dependent deacetylase LpxC: Synthesis, antibacterial properties, and docking studies” (Bioorg Med Chem, 2019).
In brackets after ≈: the same amount, converted by molar mass. Activity calls are given as the source filed them. No cut-off for these calls is given here.

Columns and labels:
Escherichia coli [1] = assay: Antibacterial activity against Escherichia coli BL21(DE3) assessed as diameter of inhibition zone measured after overnight incubation by agar disc diffusion method; format: functional
Escherichia coli [2] = assay: Antibacterial activity against Escherichia coli D22 assessed as diameter of inhibition zone measured after overnight incubation by agar disc diffusion method; format: functional
Escherichia coli [3] = assay: Antibacterial activity against Escherichia coli BL21(DE3) measured after 20 hrs by microdilution method; format: functional
Escherichia coli [4] = assay: Antibacterial activity against Escherichia coli D22 measured after 20 hrs by microdilution method; format: functional; settings: D22, 20 h
[5] = Inhibition of Escherichia coli LpxC C63A mutant using UDP-3-O-[(R)-3-hydroxymyristoyl]-N-acetylglucosamine as substrate measured after 30 mins by fluorescence based microplate assay
Klebsiella pneumoniae = assay: Antibacterial activity against Klebsiella pneumoniae assessed as diameter of inhibition zone measured after 24 hrs by agar disc diffusion method; format: functional
Klebsiella oxytoca = assay: Antibacterial activity against Klebsiella oxytoca assessed as diameter of inhibition zone measured after 24 hrs by agar disc diffusion method; format: functional
Enterobacter cloacae = assay: Antibacterial activity against Enterobacter cloacae assessed as diameter of inhibition zone measured after 24 hrs by agar disc diffusion method; format: functional
Klebsiella aerogenes = assay: Antibacterial activity against Enterobacter aerogenes assessed as diameter of inhibition zone measured after 24 hrs by agar disc diffusion method; format: functional
Proteus mirabilis = assay: Antibacterial activity against Proteus mirabilis assessed as diameter of inhibition zone measured after 24 hrs by agar disc diffusion method; format: functional
Proteus vulgaris = assay: Antibacterial activity against Proteus vulgaris assessed as diameter of inhibition zone measured after 24 hrs by agar disc diffusion method; format: functional
Citrobacter freundii = assay: Antibacterial activity against Citrobacter freundii assessed as diameter of inhibition zone measured after 24 hrs by agar disc diffusion method; format: functional
Pseudomonas aeruginosa = assay: Antibacterial activity against Pseudomonas aeruginosa assessed as diameter of inhibition zone measured after 24 hrs by agar disc diffusion method; format: functional
[6] = molecular target: 72 kDa type IV collagenase (Homo sapiens, UniProt P08253); assay: Inhibition of human MMP2 using (7-methoxycoumarin-4-yl)acetyl-Pro-Leu-Gly-Leu-(3-(2,4-dinitrophenyl)-L-2,3-diamino-propionyl)Ala-Arg-NH2 as substrate preincubated for 30 mins followed by substrate addition and measured by fluorescence assay
72 kDa type IV collagenase, sequence (P08253 whole entry): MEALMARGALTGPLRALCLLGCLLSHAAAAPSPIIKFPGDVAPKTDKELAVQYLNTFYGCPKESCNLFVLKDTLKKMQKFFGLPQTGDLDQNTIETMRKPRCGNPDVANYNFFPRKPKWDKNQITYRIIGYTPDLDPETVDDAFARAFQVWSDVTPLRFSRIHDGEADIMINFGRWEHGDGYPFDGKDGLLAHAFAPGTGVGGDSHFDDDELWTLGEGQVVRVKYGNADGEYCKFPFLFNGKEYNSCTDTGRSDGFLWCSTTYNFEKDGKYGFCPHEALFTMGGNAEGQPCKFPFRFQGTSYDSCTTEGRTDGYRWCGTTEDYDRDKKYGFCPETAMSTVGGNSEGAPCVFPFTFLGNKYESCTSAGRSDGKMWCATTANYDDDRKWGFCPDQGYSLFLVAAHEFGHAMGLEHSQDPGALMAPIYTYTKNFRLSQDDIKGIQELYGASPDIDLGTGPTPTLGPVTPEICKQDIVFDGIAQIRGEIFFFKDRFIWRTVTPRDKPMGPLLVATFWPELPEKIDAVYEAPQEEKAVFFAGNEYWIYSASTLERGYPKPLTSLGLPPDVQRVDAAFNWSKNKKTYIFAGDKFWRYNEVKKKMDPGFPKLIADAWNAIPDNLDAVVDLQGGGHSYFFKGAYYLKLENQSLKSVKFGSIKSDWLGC

Neutrophil collagenase = Neutrophil collagenase (Homo sapiens, UniProt P22894); assay: Inhibition of human MMP8 using (7-methoxycoumarin-4-yl)acetyl-Pro-Leu-Gly-Leu-(3-(2,4-dinitrophenyl)-L-2,3-diamino-propionyl)Ala-Arg-NH2 as substrate preincubated for 30 mins followed by substrate addition and measured by fluorescence assay
Neutrophil collagenase, sequence (P22894 whole entry): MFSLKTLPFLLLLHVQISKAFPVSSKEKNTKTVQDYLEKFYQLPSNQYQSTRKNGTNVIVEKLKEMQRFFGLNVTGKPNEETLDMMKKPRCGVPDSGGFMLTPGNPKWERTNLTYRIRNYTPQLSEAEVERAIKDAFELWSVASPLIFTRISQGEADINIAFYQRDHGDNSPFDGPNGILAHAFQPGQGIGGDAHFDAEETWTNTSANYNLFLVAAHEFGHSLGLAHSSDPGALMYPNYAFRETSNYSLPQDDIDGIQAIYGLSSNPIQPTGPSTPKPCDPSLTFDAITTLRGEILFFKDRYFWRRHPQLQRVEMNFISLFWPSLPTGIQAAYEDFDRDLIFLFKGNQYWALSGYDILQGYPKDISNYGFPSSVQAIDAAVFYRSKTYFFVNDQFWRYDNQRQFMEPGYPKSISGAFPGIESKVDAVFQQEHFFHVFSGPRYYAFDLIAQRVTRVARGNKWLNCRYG

[7] = molecular target: Matrix metalloproteinase-9 (Homo sapiens, UniProt P14780); assay: Inhibition of human MMP9 using (7-methoxycoumarin-4-yl)acetyl-Pro-Leu-Gly-Leu-(3-(2,4-dinitrophenyl)-L-2,3-diamino-propionyl)Ala-Arg-NH2 as substrate preincubated for 30 mins followed by substrate addition and measured by fluorescence assay
Matrix metalloproteinase-9, sequence (P14780 whole entry): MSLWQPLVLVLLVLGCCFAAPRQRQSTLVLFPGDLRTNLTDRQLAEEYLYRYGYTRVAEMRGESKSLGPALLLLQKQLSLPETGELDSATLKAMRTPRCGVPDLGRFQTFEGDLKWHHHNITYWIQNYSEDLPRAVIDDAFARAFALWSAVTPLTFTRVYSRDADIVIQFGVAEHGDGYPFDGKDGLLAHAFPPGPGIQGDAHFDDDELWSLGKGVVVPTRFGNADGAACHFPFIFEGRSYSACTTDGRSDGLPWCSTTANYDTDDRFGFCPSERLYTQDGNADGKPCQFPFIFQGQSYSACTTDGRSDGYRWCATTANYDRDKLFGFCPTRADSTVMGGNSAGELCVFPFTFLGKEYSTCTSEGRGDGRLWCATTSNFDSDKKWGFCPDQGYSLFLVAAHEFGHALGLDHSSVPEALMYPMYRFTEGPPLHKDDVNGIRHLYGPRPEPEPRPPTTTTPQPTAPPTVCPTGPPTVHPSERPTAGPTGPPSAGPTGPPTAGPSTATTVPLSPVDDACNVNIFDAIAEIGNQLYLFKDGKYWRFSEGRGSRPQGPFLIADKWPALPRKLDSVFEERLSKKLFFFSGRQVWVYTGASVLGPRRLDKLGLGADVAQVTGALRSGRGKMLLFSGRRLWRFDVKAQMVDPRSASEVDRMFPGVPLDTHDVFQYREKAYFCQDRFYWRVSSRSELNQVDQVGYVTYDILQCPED

Collagenase 3 = Collagenase 3 (Homo sapiens, UniProt P45452); assay: Inhibition of human MMP13 using (7-methoxycoumarin-4-yl)acetyl-Pro-Leu-Gly-Leu-(3-(2,4-dinitrophenyl)-L-2,3-diamino-propionyl)Ala-Arg-NH2 as substrate preincubated for 30 mins followed by substrate addition and measured by fluorescence assay
Escherichia coli [8] = assay: Inhibition of Escherichia coli LpxC C63A mutant at 200 uM using UDP-3-O-[(R)-3-hydroxymyristoyl]-N-acetylglucosamine as substrate measured after 30 mins by fluorescence based microplate assay
[9] = Selectivity ratio of IC50 for human MMP8 to IC50 for human MMP2; format: ADME
[10] = Selectivity ratio of IC50 for human MMP8 to IC50 for human MMP13; format: ADME
MMP-2/MMP-9 = MMP-2/MMP-9 (Homo sapiens, UniProt P08253+P14780); assay: Selectivity ratio of IC50 for human MMP9 to IC50 for human MMP2; format: ADME
[11] = Selectivity ratio of IC50 for human MMP9 to IC50 for human MMP13; format: ADME

MIC (Escherichia coli [3])	MIC (Escherichia coli [4])	IC50 [5]	IC50 [6]	IC50 (Neutrophil collagenase)	IC50 [7]	IC50 (Collagenase 3)	SMILES	diameter of the inhibition zone (DIZ) (Escherichia coli [1])	diameter of the inhibition zone (DIZ) (Escherichia coli [2])	Ki [5]	diameter of the inhibition zone (DIZ) (Klebsiella pneumoniae)	diameter of the inhibition zone (DIZ) (Klebsiella oxytoca)	diameter of the inhibition zone (DIZ) (Enterobacter cloacae)	diameter of the inhibition zone (DIZ) (Klebsiella aerogenes)	diameter of the inhibition zone (DIZ) (Proteus mirabilis)	diameter of the inhibition zone (DIZ) (Proteus vulgaris)	diameter of the inhibition zone (DIZ) (Citrobacter freundii)	diameter of the inhibition zone (DIZ) (Pseudomonas aeruginosa)	further results
> 256 µM	> 128 µM	> 200000 nM	3 nM	15 nM	120 nM	0.7 nM	CCCCCc1ccc(C#Cc2ccc(C(=O)N3C[C@@H](O)C[C@H]3C(=O)NO)cc2)cc1	<6 mm	8 mm	> 27600 nM	<6 mm	7 mm	<6 mm	<6 mm	7 mm	8 mm	7 mm	<6 mm	
> 256 µM	16 µM (≈ 7.19 µg/mL)	47900 nM	1000 nM	2000 nM	9000 nM	1000 nM	O=C(NO)[C@@H]1C[C@@H](O)CN1C(=O)c1ccc(C#Cc2ccc(CN3CCOCC3)cc2)cc1	7.5 mm	20.7 mm	6600 nM	9 mm	<6 mm	<6 mm	16 mm	9 mm	<6 mm	10 mm	<6 mm	
> 256 µM	16 µM (≈ 6.73 µg/mL)	5900 nM	151 nM	282 nM	845 nM	11 nM	CCCCCc1ccc(C#Cc2ccc(C(=O)N3C[C@H](O)C[C@H]3C(=O)NO)cc2)cc1	<6 mm	8 mm	810 nM	<6 mm	7 mm	8 mm	<6 mm	<6 mm	9 mm	9 mm	<6 mm	
> 256 µM	> 256 µM	> 200000 nM	> 10000 nM	> 10000 nM	> 10000 nM	4320 nM	O=C(NO)[C@H]1[C@H](O)[C@H](O)CN1C(=O)c1ccc(C#Cc2ccc(CN3CCOCC3)cc2)cc1	<6 mm	<6 mm	> 27600 nM	<6 mm	8 mm	<6 mm	<6 mm	<6 mm	<6 mm	<6 mm	<6 mm	inhibition (Escherichia coli [8]): inactive
64 µM (≈ 27.7 µg/mL)	16 µM (≈ 6.94 µg/mL)	45600 nM	570 nM	2000 nM	4000 nM	280 nM	O=C(NO)[C@@H]1CCCN1C(=O)c1ccc(C#Cc2ccc(CN3CCOCC3)cc2)cc1	13.2 mm	20 mm	6300 nM	15 mm	9 mm	13 mm	15 mm	12 mm	9 mm	12 mm	<6 mm	
128 µM (≈ 59.6 µg/mL)	16 µM (≈ 7.45 µg/mL)	2500 nM	32 nM	172 nM	1800 nM	39 nM	O=C(NO)[C@@H]1[C@H](O)[C@H](O)CN1C(=O)c1ccc(C#Cc2ccc(CN3CCOCC3)cc2)cc1	<6 mm	18 mm	340 nM									Ratio IC50 [9]: 4 to 5; Ratio IC50 [10]: 4 to 5; Ratio IC50 (MMP-2/MMP-9): 51; Ratio IC50 [11]: 51
> 256 µM	128 µM (≈ 61.6 µg/mL)	> 200000 nM	> 10000 nM		> 10000 nM	5000 nM	O=C(NO)[C@H]1[C@H](O)[C@H](O)CN1C(=O)c1ccc(C#Cc2ccc(CN3CCSCC3)cc2)cc1	<6 mm	8.3 mm	> 27600 nM	<6 mm	7 mm	<6 mm	<6 mm	<6 mm	<6 mm	<6 mm	<6 mm	inhibition (Escherichia coli [8]): inactive
